Assay: Solubility in methylene chloride
Assay type: physicochemical
Conditions: in methylene chloride at about 25° C.
Procedure: In methylene chloride, on the other hand, the DMSO solvate according to the present invention is readily soluble at temperatures in the range as indicated in the preceding paragraph (solubility about 70 g/l at about 25° C.). […] Therefore dissolving the DMSO solvate methylene chloride results in that the compound of formula (I) precipitates from this solution. This precipitate of the compound of formula (I) is generally again of greater purity than the DMSO solvate dissolved, and of such a particle size, that it can very fast be filtered or centrifuged off from the solvent. Furthermore, the precipitate of compound of formula (I) is generally in substantially crystalline form when precipitated from methylene chloride. More particularly, the precipitate comprises the compound of formula (I) at least partially in form of single-crystals.

Row | SMILES | solubility
1 | CC(C)(C)OC(=O)N1CC[C@@H](N2CC/C(=C\C3=C(C(=O)OC(c4ccccc4)c4ccccc4)N4C(=O)[C@@H](NC(=O)/C(=N\OC(c5ccccc5)(c5ccccc5)c5ccccc5)c5nsc(N)n5)[C@H]4SC3)C2=O)C1 [DMSO solvate] | about 70 g/l
2 | CC(C)(C)OC(=O)N1CC[C@@H](N2CC/C(=C\C3=C(C(=O)OC(c4ccccc4)c4ccccc4)N4C(=O)[C@@H](NC(=O)/C(=N\OC(c5ccccc5)(c5ccccc5)c5ccccc5)c5nsc(N)n5)[C@H]4SC3)C2=O)C1 [compound of formula (I), (6R,7R)-7-{2-(5-Amino-[1,2,4]thiadiazol-3-yl)-2-[(Z)-trityloxyimino]-acetylamino}-3-[(R)-1′-tert-butoxycarbonyl-2-oxo-[1,3′]bipyrrolidinyl-3E-ylidenemethyl]-8-oxo-5-thia-1-aza-bicyclo[4.2.0]oct-2-ene-2-carboxylic acid benzhydryl ester] | about 8 g/l

Source: patent publication US8865697B2, “Crystalline (6R,7R)-7-{2-(5-amino-[1,2,4] thiadiazol-3-yl)-2-[(Z)-trityloxyimino]-acetylamino}-3-[(R)-1′-tert-butoxycarbonyl-2-oxo-[1,3′]bipyrrolidinyl-(3E)-ylidenemethyl]-8-oxo-5-thia-1-aza-bicyclo[4.2.0]oct-2-ene-2-carboxylic acid benzhydryl ester; its manufacture and use” (Basilea Pharmaceutica AG, priority 2008, dated 2014)
